Test results published in ChEMBL document CHEMBL1143350, “Structure and activity of (2,8)-dicarba-(3,12)-cystino alpha-ImI, an alpha-conotoxin containing a nonreducible cystine analogue” (J Med Chem, 2009).
Calls of active or inactive are those of the source. The calls are words filed in the database; no cut-off is given here.

Legend:
[1] = (§1) Antagonist activity at nAChR in nicotine-stimulated bovine adrenal chromaffin cells assessed as inhibition of noradrenaline release preincubated for 5 mins before nicotine challenge by RP-HPLC; type: functional; conditions: Bos taurus
Bos taurus [2] = species: Bos taurus; assay: as §1; type: functional
[3] = (§2) Antagonist activity at nAChR in nicotine-stimulated bovine adrenal chromaffin cells assessed as inhibition of adrenaline release preincubated for 5 mins before nicotine challenge by RP-HPLC; type: functional; conditions: Bos taurus
Bos taurus [4] = species: Bos taurus; assay: as §2; type: functional
[5] = target: Neuronal acetylcholine receptor subunit alpha-7 (Rattus norvegicus) (UniProt Q05941); assay: Activation of rat alpha7 nAChR expressed in Xenopus laevis oocytes at 2.5 uM; type: cell-based; conditions: Oocyte
Chain of Neuronal acetylcholine receptor subunit alpha-7 (Rattus norvegicus) (Q05941 whole entry): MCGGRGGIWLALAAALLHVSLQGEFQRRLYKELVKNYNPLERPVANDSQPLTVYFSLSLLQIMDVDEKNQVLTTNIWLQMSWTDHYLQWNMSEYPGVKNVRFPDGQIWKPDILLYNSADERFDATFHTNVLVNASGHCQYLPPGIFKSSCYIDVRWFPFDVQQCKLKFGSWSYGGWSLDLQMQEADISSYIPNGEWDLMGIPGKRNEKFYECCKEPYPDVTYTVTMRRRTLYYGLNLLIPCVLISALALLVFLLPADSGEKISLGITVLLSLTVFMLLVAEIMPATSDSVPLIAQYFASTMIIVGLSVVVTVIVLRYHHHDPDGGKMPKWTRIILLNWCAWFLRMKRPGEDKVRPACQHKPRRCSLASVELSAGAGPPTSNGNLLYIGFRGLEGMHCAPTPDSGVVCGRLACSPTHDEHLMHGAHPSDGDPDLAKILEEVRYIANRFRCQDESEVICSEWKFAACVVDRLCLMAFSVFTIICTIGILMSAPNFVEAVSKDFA

[6] = target: Neuronal acetylcholine receptor subunit alpha-7 (Rattus norvegicus) (UniProt Q05941); assay: Antagonist activity at rat alpha7 nAChR expressed in Xenopus laevis oocytes assessed as inhibition of acetylcholine-evoked ion current at 2.5 uM treated 3 mins prior to acetylcholine challenge measured after 2 to 4 days by two-electrode voltage clamp method; type: functional, cell-based; parameters: scale not given: the % may be the effect or the level left; conditions: Oocyte

SMILES	IC50 [1]	Activity (Bos taurus [2])	IC50 [3]	Activity (Bos taurus [4])	Activity [5]	Activity [6]
C[C@H](NC(=O)[C@H](CS)NC(=O)[C@H](CCCNC(=N)N)NC(=O)[C@@H]1CCCN1C(=O)[C@H](CC(=O)O)NC(=O)[C@H](CO)NC(=O)[C@H](CS)NC(=O)[C@H](CS)NC(=O)CN)C(=O)N[C@@H](Cc1c[nH]c2ccccc12)C(=O)N[C@@H](CCCNC(=N)N)C(=O)N[C@@H](CS)C(N)=O	0.87 µM	Dose-dependent effect	1.12 µM	Dose-dependent effect	inactive	68%
C=CN(CC(=O)NC1C/C=C/CC2NC(=O)[C@H](CCCNC(=N)N)NC(=O)[C@@H]3CCCN3C(=O)[C@H](CC(=O)O)NC(=O)[C@H](CO)NC(=O)[C@H](CSSC[C@@H](C(=O)O)NC(=O)[C@H](CCCNC(=N)N)NC(=O)[C@H](Cc3c[nH]c4ccccc34)NC(=O)[C@H](C)NC2=O)NC1=O)C(=O)CN (single isomer, unassigned)	20 µM	Dose-dependent effect	15 µM	Dose-dependent effect		inactive
C=CN(CC(=O)NC1C/C=C\CC2NC(=O)[C@H](CCCNC(=N)N)NC(=O)[C@@H]3CCCN3C(=O)[C@H](CC(=O)O)NC(=O)[C@H](CO)NC(=O)[C@H](CSSC[C@@H](C(=O)O)NC(=O)[C@H](CCCNC(=N)N)NC(=O)[C@H](Cc3c[nH]c4ccccc34)NC(=O)[C@H](C)NC2=O)NC1=O)C(=O)CN (single isomer, unassigned; isomer I)	17 µM	Dose-dependent effect	10 µM	Dose-dependent effect	inactive	60%
